Test results as given in the supplement of paper PMC10307832.

Assays:
Experiment in all cases: relative viability (nuclei count vs DMSO), 5 days (fraction); higher = more cells survive
[1] = compound: O=S(=O)(c1ccccc1)N(CC(F)(F)F)c1ccc(C(O)(C(F)(F)F)C(F)(F)F)cc1 + COc1cccc2cc(-c3nc([C@H]4CC[C@H](C(=O)O)CC4)n4ncnc(N)c34)[nH]c12 [OSI-027] (partner 0.5 µM)
Summary of the method: (§1)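 Medians of duplicate plates are given as relative viability. That measure is the nuclei count in treated wells divided by the count in vehicle wells. Counts were taken on 4× images of lung cancer cell lines in 1536-well plates, 5 days after pin-tool dosing the day after seeding with one drug alone or a fixed anchor-drug dose plus five library-drug doses (not always all listed) in √10 steps.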

[2] = compound: C1=CC2=C(C=CC(=C2)C=C3C(=O)NC(=NCC4=CC=CS4)S3)N=C1 [RO-3306] + Nc1ncn([C@H]2C[C@H](O)[C@@H](CO)O2)c(=O)n1 [Decitabine] (partner 2 µM)
Summary of the method: as §1

[3] = compound: O=S(=O)(c1ccccc1)N(CC(F)(F)F)c1ccc(C(O)(C(F)(F)F)C(F)(F)F)cc1 + Cc1nc(Nc2ncc(C(=O)Nc3c(C)cccc3Cl)s2)cc(N2CCN(CCO)CC2)n1 [Dasatinib] (partner 0.075 µM)
Summary of the method: as §1

[4] = compound: C1=CC2=C(C=CC(=C2)C=C3C(=O)NC(=NCC4=CC=CS4)S3)N=C1 [RO-3306] + NC(=O)Nc1cc(-c2cccc(F)c2)sc1C(=O)N[C@H]1CCCNC1 [AZD7762] (partner 0.2 µM)
Summary of the method: as §1

Row | Cell Line | relative viability ([1]; first compound 0.8 µM) | relative viability ([1]; first compound 2.53 µM) | relative viability ([1]; first compound 8 µM) | relative viability ([2]; first compound 0.01 µM) | relative viability ([2]; first compound 0.03162 µM) | relative viability ([2]; first compound 0.1 µM) | relative viability ([2]; first compound 0.3162 µM) | relative viability ([2]; first compound 1 µM) | relative viability ([3]; first compound 0.8 µM) | relative viability ([3]; first compound 2.53 µM) | relative viability ([3]; first compound 8 µM) | relative viability ([4]; first compound 0.01 µM) | relative viability ([4]; first compound 0.03162 µM) | relative viability ([4]; first compound 0.1 µM) | relative viability ([4]; first compound 0.3162 µM) | relative viability ([4]; first compound 1 µM)
1 | NCI-H647 | 0.592 | 0.498 | 0.681 | 0.479 | 0.336 | 0.417 | 0.429 | 0.405 | 0.142 | 0.162 | 0.208 | 0.519 | 0.339 | 0.325 | 0.515 | 0.31
2 | NCI-H650 | 0.533 | 0.498 | 0.532 | 0.292 | 0.33 | 0.283 | 0.259 | 0.352 | 0.368 | 0.425 | 0.479 | 0.874 | 0.911 | 0.943 | 1.05 | 0.952
3 | NCI-H727 | 0.669 | 0.474 | 0.631 | 0.834 | 0.751 | 0.891 | 0.888 | 0.846 | 0.408 | 0.302 | 0.325 | 0.488 | 0.681 | 0.558 | 0.567 | 0.739
4 | NCI-H838 | 0.411 | 0.412 | 0.467 | 0.512 | 0.443 | 0.425 | 0.466 | 0.412 | 0.273 | 0.303 | 0.325 | 1.03 | 0.908 | 0.975 | 0.972 | 0.931
5 | NCI-H1355 | 0.409 | 0.366 | 0.453 | 0.395 | 0.341 | 0.353 | 0.355 | 0.362 | 0.771 | 0.661 | 0.663 | 0.792 | 0.762 | 0.677 | 0.694 | 0.863
6 | NCI-H1395 | 0.512 | 0.57 | 0.579 | 0.663 | 0.699 | 0.656 | 0.68 | 0.724 | 0.321 | 0.375 | 0.414 | 0.44 | 0.42 | 0.374 | 0.374 | 0.427
7 | NCI-H1437 | 0.915 | 0.811 | 0.822 | 0.59 | 0.513 | 0.549 | 0.596 | 0.631 | 0.327 | 0.297 | 0.287 | 1.2 | 1.08 | 1.11 | 1.15 | 0.882
8 | NCI-H1651 | 0.742 | 0.793 | 0.703 | 0.671 | 0.562 | 0.587 | 0.664 | 0.58 | 0.486 | 0.434 | 0.306 | 0.437 | 0.406 | 0.454 | 0.424 | 0.469
9 | NCI-H1666 | 0.849 | 0.819 | 0.813 | 0.729 | 0.75 | 0.736 | 0.711 | 0.641 | 0.765 | 0.68 | 0.683 | 0.787 | 0.878 | 0.858 | 0.88 | 0.799
10 | NCI-H1734 | 0.708 | 0.55 | 0.637 | 0.621 | 0.471 | 0.471 | 0.566 | 0.502 | 0.553 | 0.464 | 0.462 | 0.596 | 0.491 | 0.536 | 0.585 | 0.483
11 | NCI-H1755 | 0.712 | 0.657 | 0.691 | 0.73 | 0.739 | 0.728 | 0.706 | 0.707 | 0.373 | 0.368 | 0.429 | 0.609 | 0.473 | 0.458 | 0.439 | 0.496
12 | NCI-H1792 | 0.688 | 0.717 | 0.458 | 0.702 | – | 0.47 | 0.606 | 0.481 | 0.712 | 0.587 | 0.506 | 0.76 | – | 0.657 | 0.709 | 0.661
13 | NCI-H1793 | 0.292 | 0.188 | 0.207 | 0.415 | – | 0.403 | 0.49 | 0.493 | 0.375 | 0.335 | 0.347 | 0.643 | – | 0.484 | 0.277 | 0.532
14 | NCI-H1915 | 0.643 | 0.646 | 0.649 | 0.245 | 0.262 | 0.252 | 0.239 | 0.251 | 0.284 | 0.276 | 0.291 | 0.749 | 0.679 | 0.727 | 0.698 | 0.685
15 | NCI-H1944 | 0.423 | 0.385 | 0.401 | 0.424 | 0.432 | 0.424 | 0.453 | 0.376 | 0.222 | 0.233 | 0.191 | 0.606 | 0.571 | 0.508 | 0.45 | 0.46
16 | NCI-H1975 | 0.885 | 0.641 | 0.71 | 0.336 | 0.386 | 0.376 | 0.405 | 0.5 | 0.353 | 0.339 | 0.298 | 0.762 | 0.671 | 0.712 | 0.641 | 0.653
17 | NCI-H1993 | 0.58 | 0.341 | 0.552 | 0.616 | 0.493 | 0.486 | 0.575 | 0.657 | 0.451 | 0.441 | 0.544 | 0.697 | 0.756 | 0.772 | 0.77 | 0.684
18 | NCI-H2085 | 0.98 | 0.718 | 0.769 | 0.54 | 0.506 | 0.463 | 0.539 | 0.578 | 0.226 | 0.238 | 0.204 | 1.04 | 0.95 | 0.93 | 0.921 | 1.07
19 | NCI-H2087 | 0.6 | 0.487 | 0.622 | 0.296 | 0.276 | 0.253 | 0.251 | 0.25 | 0.72 | 0.713 | 0.74 | 1.42 | 1.03 | 1.35 | 1.42 | 1.34
20 | NCI-H2126 | 0.819 | 0.673 | 0.717 | 0.528 | 0.561 | 0.637 | 0.586 | 0.57 | 0.753 | 0.634 | 0.535 | 1.01 | 0.976 | 1.02 | 0.993 | 1.13
21 | NCI-H2170 | 0.653 | 0.663 | 0.685 | 0.473 | 0.433 | 0.471 | 0.458 | 0.486 | 0.568 | 0.588 | 0.444 | 1.11 | 0.865 | 0.938 | 0.939 | 0.907
22 | NCI-H2342 | 0.646 | 0.626 | 0.58 | 0.746 | 0.654 | 0.755 | 0.773 | 0.673 | 0.286 | 0.31 | 0.326 | 0.437 | 0.448 | 0.524 | 0.536 | 0.464
23 | NCI-H2347 | 0.699 | 0.445 | 0.302 | 0.643 | 0.597 | 0.592 | 0.574 | 0.645 | 0.263 | 0.24 | 0.289 | 1.13 | 0.663 | 0.796 | 0.766 | 0.724
24 | NCI-H2405 | 0.674 | 0.645 | 0.681 | 0.703 | 0.751 | 0.803 | 0.685 | 0.727 | 0.117 | 0.15 | 0.134 | 0.828 | 0.608 | 0.717 | 0.718 | 0.578
25 | NCI-H3122 | 1.18 | 0.807 | 1.14 | 0.406 | 0.345 | 0.379 | 0.461 | 0.42 | 0.725 | 0.525 | 0.817 | 1.16 | 1.06 | 0.973 | 1.06 | 1.1
26 | PC-3 [JPC-3] | 0.864 | 0.744 | 0.785 | 0.84 | 0.777 | 0.82 | 0.802 | 0.817 | 1.03 | 1.05 | 0.972 | 0.688 | 0.673 | 0.769 | 0.687 | 0.681
27 | PC-14 | 0.991 | 0.886 | 0.44 | 0.196 | 0.209 | 0.222 | 0.277 | 0.244 | 0.265 | 0.213 | 0.106 | 0.28 | 0.32 | 0.285 | 0.426 | 0.251
28 | RERF-LC-KJ | 0.545 | 0.599 | 0.556 | 0.763 | 0.715 | 0.689 | 0.75 | 0.665 | 0.753 | 0.652 | 0.641 | 1.02 | 0.671 | 1.06 | 1.11 | 1.24
29 | SW 900 | 0.52 | 0.519 | 0.591 | 0.45 | 0.425 | 0.42 | 0.404 | 0.549 | 0.625 | 0.563 | 0.478 | 0.652 | 0.511 | 0.653 | 0.587 | 0.626
